According to patent publication US20250090541A1, “Methods for Treating Neurodegenerative Disorders” (Praetego Inc, priority 2022, published 2025):

Assays:
[1] = system: 4-hydroxynonal (4-HNE); assay: Lipid peroxidation, 4-HNE Oxiselect ELISA in hippocampus homogenates, htau mice; type: in vivo
Description: (§1) Female and male human tau mice (Jax #005491) were treated daily for 25 weeks with PTG-630 trihydrochloride at 1 and 5 mg/kg in drinking water starting at 10 weeks of age (before cognitive deficits appear).
Lipid peroxidation was assessed using the 4-hydroxynonal (4-HNE) Oxiselect ELISA in hippocampus homogenates. […] It is believed that damage to neuronal tissue occurs to a significant extent via induction of oxidative stress that leads to lipoxidation, so that amelioration by PTG-630 reflects their efficacy via anti-oxidant mechanisms.

[2] = system: htau mice; assay: Intraepidermal nerve fiber (IENF) quantification in footskin, htau mice; type: in vivo
From the text: A standard measure of associated PNS damage to neuronal tissue and its amelioration is IENF, seen alongside changes in the CNS. […] The amelioration of these PNS effects confirms that PTG-630 readily enters and targets neuronal tissue, whether in the brain or elsewhere in the body.

[3] = Mortality and apparent toxicity, 25 weeks in human tau mice; type: in vivo; settings: 1 and 5 mg/kg in drinking water
Description: as §1
• 1—Control (C57B16), N=7 male, N=7 female, Final N=6 male, N=6 female • 2—htau, N=7 male, N=7 female, Final N=7 male, N=6 female • 3—htau+PTG-630 1 mg/kg drinking water, N=7 male, N=7 female, Final N=7 male, N=7 female • 4—htau+PTG-630 5 mg/kg drinking water, N=7 male, N=7 female, Final N=6 male, N=7 female
One mouse in group 4 died at week 8 from tooth occlusion.

[4] = system: htau mice; assay: Motor nerve conduction velocity (NCV), htau mice; type: in vivo; settings: htau mice with or without treatment, 8, 16 and 25 weeks
Description: as §1
Motor nerve conduction velocity (NCV) was measured at 8, 16 and 25 weeks after treatment.

[5] = Oral pharmacokinetics and tissue distribution of PTG-630 (blood brain barrier penetration); type: in vivo, Sprague-Dawley rats; parameters: AUC(0-t) / AUC(0-inf): concentration or dose not given beside the values; settings: for concentration at 0.5 h: 0.50 h
From the text: This was a study in male Sprague-Dawley rats. The primary objective was to assess the IV and PO pharmacokinetics of PTG-630. The secondary objectives were to assess tissue distribution after oral administration of PTG-630 (free base form) and the renal excretion, hepatic extraction efficiency and bioavailability of PTG-630.
Twelve non-cannulated animals were arbitrarily assigned to groups upon arrival and housed together throughout the experiment. The animals were acclimated to their designated housing for at least 24 hours before the first day of dosing. PTG-630 was formulated in 0.5% methyl cellulose and 0.1% Tween 20 in water for injection and administered to animals by mouth (PO) with blood and tissue samples collected at predetermined time points. Right thigh muscle, liver, brain, right sciatic nerve, and right kidney were collected at the terminal time points. These samples were collected and placed into individually labeled tubes and frozen at −20° C. Tissues samples were analyzed for concentration of PTG-630.

[6] = system: Drebrin; assay: Western blot of hippocampus, human tau mice: Drebrin; type: in vivo; settings: 12 weeks of treatment in drinking water
From the text: (§2) Mouse Hippocampus were processed for Western blotting analysis of (A) Drebrin (actin binding protein in dendritic spines, role in neuronal growth, a decrease=contributing factor in the pathogenesis of memory disturbance), (B) PSD95 (a post-synaptic protein, role in the regulation of excitatory synapse maturity), and (C) NeuN (neuronal nuclear antigen, biomarker for neurons, decrease=neuronal loss) (FIG. 3).

[7] = system: NeuN; assay: Western blot of hippocampus, human tau mice: NeuN; type: in vivo; settings: 5 mg/kg
Description: as §1, §2

[8] = system: PSD95; assay: Western blot of hippocampus, human tau mice: PSD95; type: in vivo; settings: 1 and 5 mg/kg, tendency
Description: as §1, §2

[9] = system: human tau mice; assay: Thermal response to heat (hypoalgesia), human tau mice; type: in vivo
Description: as §1
Tactile and thermal responses, measures of associated damage to the peripheral nervous system (PNS), were assessed at 8, 14, 18 and 24 weeks. hTau mice developed significant tactile allodynia measured with manual von Frey filaments at the 14 weeks time point (FIG. 4).
Human tau mice develop significant hypoalgesia (FIG. 5).

[10] = male, Sprague-Dawley, rat, brain, po
[11] = male, Sprague-Dawley, rat, kidney, po
[12] = male, Sprague-Dawley, rat, liver, po
[13] = male, Sprague-Dawley, rat, muscle, po
[14] = male, Sprague-Dawley, rat, plasma, po
[15] = male, Sprague-Dawley, rat, sciatic nerve, po
[16] = male, Sprague-Dawley, rat, Brain, PO, mean
[17] = male, Sprague-Dawley, rat, Kidney, PO, mean
[18] = male, Sprague-Dawley, rat, Liver, PO, mean
[19] = male, Sprague-Dawley, rat, Muscle, PO, mean
[20] = male, Sprague-Dawley, rat, Plasma, PO, mean
[21] = male, Sprague-Dawley, rat, Sciatic Nerve, PO, mean

Compound: Cc1ncc(CN2CCOCC2)c(-c2ncc[nH]2)c1O [PTG-630, 4-(1H-imidazol-2-yl)-2-methyl-5-(morpholinomethyl)pyridin-3-ol]
- 4-HNE levels in hippocampus ([1]; 1 mg/kg): significantly (p<0.01) reduced HINE levels to control levels
- 4-HNE levels in hippocampus ([1]; 5 mg/kg): significantly (p<0.01) reduced HINE levels to control levels
- IENF in footskin ([2]; female mice): No difference was noted
- decreased IENF in footskin ([2]; male mice, 1 mg/kg): significantly (p<0.05) ameliorated
- apparent toxicity [3]: No toxicity was apparent
- Nerve conduction velocity [4]: not significantly different from control levels
- Concentration ([5]; Brain, 24 h, PO, mean): BLQ
- % Extrap ([5]; Brain, PO): 23.7%
- Concentration ([5]; Kidney, 24 h, PO, mean): BLQ
- % Extrap ([5]; Kidney, PO): 14.0%
- Concentration ([5]; Liver, 24 h, PO, mean): BLQ
- % Extrap ([5]; Liver, PO): 5.72%
- Concentration ([5]; Muscle, 24 h, PO, mean): BLQ
- % Extrap ([5]; Muscle, PO): 30.7%
- % Extrap ([5]; Plasma, PO): 1.13%
- Concentration ([5]; Sciatic Nerve, 24 h, PO, mean): BLQ
- detectability in tissues 24 hours post dose ([5]; any tissue except plasma, 24 hours post dose): not detectable
- Half-life in brain relative to plasma ([5]; brain vs plasma): 1.3 times
- quantifiability in tested tissues ([5]; liver, kidney, brain, sciatic nerve, muscle): quantifiable in all tested tissues
- AUC(0-inf) [5, 10]: 6720 ng·h/mL
- AUC(0-t) [5, 10]: 5130 ng·h/mL
- Cmax [5, 10]: 1990 ng/mL
- Tmax [5, 10]: 1 h
- half-life [5, 10]: 4.53 h
- AUC(0-inf) [5, 11]: 11400 ng·h/mL
- AUC(0-t) [5, 11]: 9770 ng·h/mL
- Cmax [5, 11]: 3880 ng/mL
- Tmax [5, 11]: 1 h
- AUC(0-inf) [5, 12]: 22000 ng·h/mL
- AUC(0-t) [5, 12]: 20700 ng·h/mL
- Cmax [5, 12]: 6350 ng/mL
- Tmax [5, 12]: 1 h
- AUC(0-inf) [5, 13]: 3820 ng·h/mL
- AUC(0-t) [5, 13]: 2650 ng·h/mL
- Cmax [5, 13]: 1030 ng/mL
- Tmax [5, 13]: 1 h
- AUC(0-inf) [5, 14]: 8700 ng·h/mL
- AUC(0-t) [5, 14]: 8600 ng·h/mL
- Cmax [5, 14]: 1160 ng/mL
- Tmax [5, 14]: 1 h
- AUC(0-t) [5, 15]: 6550 ng·h/mL
- Cmax [5, 15]: 1830 ng/mL
- Tmax [5, 15]: 1 h
- Kp ([5]; male, Sprague-Dawley, rat, selected tissues vs plasma, po, read-out: exposure in selected tissues relative to exposure in plasma): 3 to 5
- concentration at 0.5 h [5, 16]: 1430 ng/mL
- concentration at 1 h [5, 16]: 1990 ng/mL
- concentration at 2 h [5, 16]: 450 ng/mL
- concentration at 4 h [5, 16]: 1000 ng/mL
- concentration at 6 h [5, 16]: 244 ng/mL
- concentration at 0.5 h [5, 17]: 2230 ng/mL
- concentration at 1 h [5, 17]: 3880 ng/mL
- concentration at 2 h [5, 17]: 1510 ng/mL
- concentration at 4 h [5, 17]: 1520 ng/mL
- concentration at 6 h [5, 17]: 466 ng/mL
- concentration at 0.5 h [5, 18]: 5720 ng/mL
- concentration at 1 h [5, 18]: 6350 ng/mL
- concentration at 2 h [5, 18]: 5080 ng/mL
- concentration at 4 h [5, 18]: 2420 ng/mL
- concentration at 6 h [5, 18]: 647 ng/mL
- concentration at 0.5 h [5, 19]: 775 ng/mL
- concentration at 1 h [5, 19]: 1030 ng/mL
- concentration at 2 h [5, 19]: 290 ng/mL
- concentration at 4 h [5, 19]: 401 ng/mL
- concentration at 6 h [5, 19]: 245 ng/mL
- concentration at 0.5 h [5, 20]: 930 ng/mL
- concentration at 1 h [5, 20]: 1160 ng/mL
- concentration at 2 h [5, 20]: 274 ng/mL
- concentration at 4 h [5, 20]: 794 ng/mL
- concentration at 6 h [5, 20]: 510 ng/mL
- concentration at 24 h ([5]; male, Sprague-Dawley, rat, Plasma, 24 h, PO, mean): 18.4 ng/mL
- concentration at 0.5 h [5, 21]: 1660 ng/mL
- concentration at 1 h [5, 21]: 1830 ng/mL
- concentration at 2 h [5, 21]: 510 ng/mL
- concentration at 4 h [5, 21]: 989 ng/mL
- concentration at 6 h [5, 21]: 690 ng/mL
- Tmax ([5]; male, Sprague-Dawley, rat, tissues, comparable to plasma, PO): 1 h
- reduced drebrin levels in hippocampus [6]: significantly (p<0.05) ameliorated
- neuronal loss (NeuN) in hippocampus [7]: partially alleviated
- levels of PSD95 protein in hippocampus [8]: dose-dependly ameliorate
- thermal hypoalgesia ([9]; 1 mg/kg, remained for the rest of the study): significant by 14 weeks of treatment
- thermal hypoalgesia ([9]; 5 mg/kg, by 8 weeks of treatment and for the duration of the study): significantly ameliorated
- thermal responses to heat ([9]; FIG. 5 legend, after 24 weeks of treatment): amelioration of hypoalgesia
